According to patent publication US20230085307A1, “PYRIDAZINONE COMPOUND AND HERBICIDE” (NISSAN CHEMICAL CORPORATION, priority 2019, published 2023):

Legend:
[1] = tested on: Chinese sprangletop; test: Test Example 3: herbicidal effect by foliage application, Wagner pot (Table 18, symbol D); type: in vivo, chinese sprangletop (Leptochloa chinensis)
Summary of the method: (§1)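 Plants were sown in alluvial soil held under 0.1–0.5 cm standing water and grown 14 days in a greenhouse at 25–30 °C. An emulsifiable formulation, water-diluted to the set dose, was then sprayed onto the foliage, and effects were scored three weeks later using previously defined criteria.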

[2] = tested on: redroot pigweed; test: Test Example 5: herbicidal effect by foliage application, plastic box (Table 20, symbol N); type: in vivo, redroot pigweed (Amaranthus retroflexus); conditions: foliage application, 320 g/ha
Summary of the method: (§2)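 Sow seeds spot-wise in sterilized diluvial soil; cover with ~1.5 cm soil. Grow 14 days in greenhouse, 25° C. to 30° C. Spray foliage with emulsion diluted to predetermined amount. Rate effect after 3 weeks.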

[3] = tested on: redroot pigweed; test: Test Example 4: herbicidal effect by soil treatment (Table 19, symbol N); type: in vivo, redroot pigweed (Amaranthus retroflexus)
Summary of the method: (§3)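 Applied as a water-diluted emulsion, the compound was sprayed onto soil covering newly sown seeds. Evaluation came three weeks after application, in a greenhouse held at 25° C. to 30° C.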

[4] = tested on: blackgrass; test: Test Example 4: herbicidal effect by soil treatment (Table 19, symbol J); type: in vivo, blackgrass (Alopecurus myosuroides)
Summary of the method: as §3

[5] = tested on: wild oat; test: Test Example 4: herbicidal effect by soil treatment (Table 19, symbol I); type: in vivo, wild oat (Avena fatua)
Summary of the method: as §3

[6] = tested on: chickweed; test: Test Example 4: herbicidal effect by soil treatment (Table 19, symbol P); type: in vivo, common chickweed (Stellaria media)
Summary of the method: as §3

[7] = tested on: southern crabgrass; test: Test Example 4: herbicidal effect by soil treatment (Table 19, symbol F); type: in vivo, southern crabgrass (Digitaria ciliaris)
Summary of the method: as §3

[8] = tested on: green foxtail; test: Test Example 5: herbicidal effect by foliage application, plastic box (Table 20, symbol G); type: in vivo, green foxtail (Setaria viridis); conditions: foliage application, 320 g/ha
Summary of the method: as §2

[9] = tested on: velvetleaf; test: Test Example 5: herbicidal effect by foliage application, plastic box (Table 20, symbol M); type: in vivo, velvetleaf (Abutilon theophrasti); conditions: foliage application, 320 g/ha
Summary of the method: as §2

[10] = tested on: barnyard grass; test: Test Example 5: herbicidal effect by foliage application, plastic box (Table 20, symbol H); type: in vivo, barnyard grass (Echinochloa crus-galli); conditions: foliage application, 320 g/ha
Summary of the method: as §2

[11] = tested on: rice flat sedge; test: Test Example 3: herbicidal effect by foliage application, Wagner pot (Table 18, symbol E); type: in vivo, rice flat sedge (Cyperus iria)
Summary of the method: as §1

[12] = tested on: Italian ryegrass; test: Test Example 5: herbicidal effect by foliage application, plastic box (Table 20, symbol K); type: in vivo, Italian ryegrass (Lolium multiflorum); conditions: foliage application, 320 g/ha
Summary of the method: as §2

[13] = tested on: barnyard grass; test: Test Example 3: herbicidal effect by foliage application, Wagner pot (Table 18, symbol H); type: in vivo, barnyard grass (Echinochloa crus-galli)
Summary of the method: as §1

[14] = tested on: southern crabgrass; test: Test Example 5: herbicidal effect by foliage application, plastic box (Table 20, symbol F); type: in vivo, southern crabgrass (Digitaria ciliaris); conditions: foliage application, 320 g/ha
Summary of the method: as §2

[15] = tested on: blackgrass; test: Test Example 5: herbicidal effect by foliage application, plastic box (Table 20, symbol J); type: in vivo, blackgrass (Alopecurus myosuroides); conditions: foliage application, 320 g/ha
Summary of the method: as §2

[16] = tested on: windgrass; test: Test Example 4: herbicidal effect by soil treatment (Table 19, symbol L); type: in vivo, windgrass (Apera spica-venti)
Summary of the method: as §3

[17] = tested on: persian speedwell; test: Test Example 5: herbicidal effect by foliage application, plastic box (Table 20, symbol R); type: in vivo, Persian speedwell (Veronica persica); conditions: foliage application, 320 g/ha
Summary of the method: as §2

[18] = tested on: false cleavers; test: Test Example 4: herbicidal effect by soil treatment (Table 19, symbol Q); type: in vivo, false cleavers (Galium spurium)
Summary of the method: as §3

[19] = tested on: barnyard grass; test: Test Example 4: herbicidal effect by soil treatment (Table 19, symbol H); type: in vivo, barnyard grass (Echinochloa crus-galli)
Summary of the method: as §3

[20] = tested on: chickweed; test: Test Example 5: herbicidal effect by foliage application, plastic box (Table 20, symbol P); type: in vivo, common chickweed (Stellaria media); conditions: foliage application, 320 g/ha
Summary of the method: as §2

[21] = tested on: lambsquarters; test: Test Example 4: herbicidal effect by soil treatment (Table 19, symbol O); type: in vivo, lambsquarters (Chenopodium album)
Summary of the method: as §3

[22] = tested on: persian speedwell; test: Test Example 4: herbicidal effect by soil treatment (Table 19, symbol R); type: in vivo, Persian speedwell (Veronica persica)
Summary of the method: as §3

[23] = tested on: Italian ryegrass; test: Test Example 4: herbicidal effect by soil treatment (Table 19, symbol K); type: in vivo, Italian ryegrass (Lolium multiflorum)
Summary of the method: as §3

[24] = tested on: green foxtail; test: Test Example 4: herbicidal effect by soil treatment (Table 19, symbol G); type: in vivo, green foxtail (Setaria viridis)
Summary of the method: as §3

[25] = tested on: velvetleaf; test: Test Example 4: herbicidal effect by soil treatment (Table 19, symbol M); type: in vivo, velvetleaf (Abutilon theophrasti)
Summary of the method: as §3

[26] = tested on: windgrass; test: Test Example 5: herbicidal effect by foliage application, plastic box (Table 20, symbol L); type: in vivo, windgrass (Apera spica-venti); conditions: foliage application, 320 g/ha
Summary of the method: as §2

[27] = tested on: wild oat; test: Test Example 5: herbicidal effect by foliage application, plastic box (Table 20, symbol I); type: in vivo, wild oat (Avena fatua); conditions: foliage application, 320 g/ha
Summary of the method: as §2

[28] = tested on: lambsquarters; test: Test Example 5: herbicidal effect by foliage application, plastic box (Table 20, symbol O); type: in vivo, lambsquarters (Chenopodium album); conditions: foliage application, 320 g/ha
Summary of the method: as §2

[29] = amount of applied herbicide 320 g/ha
[30] = evaluated 3 weeks after application
[31] = evaluated three weeks after application

Cc1nn(C)c(=O)c(-c2c(-c3ccc(Cl)s3)oc3ccc(F)cc23)c1O [9-047]
Herbicidal effect on D (Chinese sprangletop), foliage application [1, 29]: 0 (Herbicidal rate of 5% or less (almost no effect))
N (redroot pigweed) herbicidal effect grade [2, 30]: 3 (Herbicidal rate of 40% or more and less than 70%)
N: redroot pigweed, herbicidal effect grade [3, 29]: 3 (Herbicidal rate of 40% or more and less than 70%)
J: blackgrass, herbicidal effect grade [4, 29]: 0 (Herbicidal rate of 5% or less (almost no effect))
I: wild oat, herbicidal effect grade [5, 29]: 0 (Herbicidal rate of 5% or less (almost no effect))
P: chickweed, herbicidal effect grade [6, 29]: 0 (Herbicidal rate of 5% or less (almost no effect))
F: southern crabgrass, herbicidal effect grade [7, 29]: 0 (Herbicidal rate of 5% or less (almost no effect))
G (green foxtail) herbicidal effect grade [8, 30]: 2 (Herbicidal rate of 20% or more and less than 40%)
M (velvetleaf) herbicidal effect grade [9, 30]: 2 (Herbicidal rate of 20% or more and less than 40%)
H (barnyard grass) herbicidal effect grade [10, 30]: 3 (Herbicidal rate of 40% or more and less than 70%)
Herbicidal effect on E (rice flat sedge), foliage application [11, 29]: 3 (Herbicidal rate of 40% or more and less than 70%)
K (Italian ryegrass) herbicidal effect grade [12, 30]: 4 (Herbicidal rate of 70% or more and less than 90%)
Herbicidal effect on H (barnyard grass), foliage application [13, 29]: 2 (Herbicidal rate of 20% or more and less than 40%)
F (southern crabgrass) herbicidal effect grade [14, 30]: 3 (Herbicidal rate of 40% or more and less than 70%)
J (blackgrass) herbicidal effect grade [15, 30]: 0 (Herbicidal rate of 5% or less (almost no effect))
L: windgrass, herbicidal effect grade [16, 29]: 0 (Herbicidal rate of 5% or less (almost no effect))
R (persian speedwell) herbicidal effect grade [17, 30]: 4 (Herbicidal rate of 70% or more and less than 90%)
Q: false cleavers, herbicidal effect grade [18, 29]: 0 (Herbicidal rate of 5% or less (almost no effect))
H: barnyard grass, herbicidal effect grade [19, 29]: 0 (Herbicidal rate of 5% or less (almost no effect))
P (chickweed) herbicidal effect grade [20, 30]: 5 (Herbicidal rate of 90% or more (almost completely withered))
O: lambsquarters, herbicidal effect grade [21, 29]: 0 (Herbicidal rate of 5% or less (almost no effect))
R: persian speedwell, herbicidal effect grade [22, 29]: 1 (Herbicidal rate of 5% or more and less than 20%)
K: Italian ryegrass, herbicidal effect grade [23, 29]: 4 (Herbicidal rate of 70% or more and less than 90%)
G: green foxtail, herbicidal effect grade [24, 29]: 0 (Herbicidal rate of 5% or less (almost no effect))
M: velvetleaf, herbicidal effect grade [25, 29]: 0 (Herbicidal rate of 5% or less (almost no effect))
L (windgrass) herbicidal effect grade [26, 30]: 0 (Herbicidal rate of 5% or less (almost no effect))
I (wild oat) herbicidal effect grade [27, 30]: 1 (Herbicidal rate of 5% or more and less than 20%)
O (lambsquarters) herbicidal effect grade [28, 30]: 1 (Herbicidal rate of 5% or more and less than 20%)

Cc1nn(C)c(=O)c(-c2c(-c3ccc(F)cc3)sc3ccc(Cl)cc23)c1O [2-097]
herbicidal effect on D (Chinese sprangletop), rating 0-5 ([1]; 320 g/ha): 3 (Herbicidal rate of 40% or more and less than 70%)
herbicidal effect on N: redroot pigweed [2, 31]: 5 (Herbicidal rate of 90% or more (almost completely withered))
herbicidal effect rating, N: redroot pigweed ([3]; 320 g/ha): 5 (Herbicidal rate of 90% or more (almost completely withered))
herbicidal effect rating, J: blackgrass ([4]; 320 g/ha): 5 (Herbicidal rate of 90% or more (almost completely withered))
herbicidal effect rating, I: wild oat ([5]; 320 g/ha): 1 (Herbicidal rate of 5% or more and less than 20%)
herbicidal effect rating, P: chickweed ([6]; 320 g/ha): 5 (Herbicidal rate of 90% or more (almost completely withered))
herbicidal effect rating, F: southern crabgrass ([7]; 320 g/ha): 2 (Herbicidal rate of 20% or more and less than 40%)
herbicidal effect on G: green foxtail [8, 31]: 5 (Herbicidal rate of 90% or more (almost completely withered))
herbicidal effect on M: velvetleaf [9, 31]: 5 (Herbicidal rate of 90% or more (almost completely withered))
herbicidal effect on H: barnyard grass [10, 31]: 5 (Herbicidal rate of 90% or more (almost completely withered))
herbicidal effect on E (rice flat sedge), rating 0-5 ([11]; 320 g/ha): 4 (Herbicidal rate of 70% or more and less than 90%)
herbicidal effect on K: Italian ryegrass [12, 31]: 5 (Herbicidal rate of 90% or more (almost completely withered))
herbicidal effect on H (barnyard grass), rating 0-5 ([13]; 320 g/ha): 5 (Herbicidal rate of 90% or more (almost completely withered))
herbicidal effect on F: southern crabgrass [14, 31]: 5 (Herbicidal rate of 90% or more (almost completely withered))
herbicidal effect on J: blackgrass [15, 31]: 5 (Herbicidal rate of 90% or more (almost completely withered))
herbicidal effect rating, L: windgrass ([16]; 320 g/ha): 5 (Herbicidal rate of 90% or more (almost completely withered))
herbicidal effect on R: persian speedwell [17, 31]: 5 (Herbicidal rate of 90% or more (almost completely withered))
herbicidal effect rating, Q: false cleavers ([18]; 320 g/ha): 4 (Herbicidal rate of 70% or more and less than 90%)
herbicidal effect rating, H: barnyard grass ([19]; 320 g/ha): 3 (Herbicidal rate of 40% or more and less than 70%)
herbicidal effect on P: chickweed [20, 31]: 5 (Herbicidal rate of 90% or more (almost completely withered))
herbicidal effect rating, O: lambsquarters ([21]; 320 g/ha): 5 (Herbicidal rate of 90% or more (almost completely withered))
herbicidal effect rating, R: persian speedwell ([22]; 320 g/ha): 5 (Herbicidal rate of 90% or more (almost completely withered))
herbicidal effect rating, K: Italian ryegrass ([23]; 320 g/ha): 5 (Herbicidal rate of 90% or more (almost completely withered))
herbicidal effect rating, G: green foxtail ([24]; 320 g/ha): 3 (Herbicidal rate of 40% or more and less than 70%)
herbicidal effect rating, M: velvetleaf ([25]; 320 g/ha): 3 (Herbicidal rate of 40% or more and less than 70%)
herbicidal effect on L: windgrass [26, 31]: 5 (Herbicidal rate of 90% or more (almost completely withered))
herbicidal effect on I: wild oat [27, 31]: 5 (Herbicidal rate of 90% or more (almost completely withered))
herbicidal effect on O: lambsquarters [28, 31]: 5 (Herbicidal rate of 90% or more (almost completely withered))
